ChEMBL document CHEMBL1201862, “PubChem BioAssay data set” (2004)
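Exposure lasted 48 hours, with cells grown in 96-well plates and compounds tested at five concentrations. GI50 = concentration required for 50% inhibition of growth.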 Active and inactive are the calls of the source. Cut-off read from the data, not from the text of the source: active = GI50 up to about 1.1 µM and inactive = higher. Starred links: 1 amine or outer side, 2 acyl side, 3 side chain; linkers in the order of their positions; H or OH if unused. Positions of bridges follow the written chain, without caps; N, C: chain ends. Non-standard residues stand in square brackets, D forms with d. Residues, ends and D or L forms follow the SMILES beside them. Chains are numbered I, II in the order given. ξ: configuration not given here. X42 = N=C(N)NCCC[C@H](NC(=N)CCCCCCC(=N)N[C@@H](CCCNC(=N)N)C(=O)[*:2])C(=O)[*:1]; Oic(3aξ,7aξ) = O=C(O)[C@@H]1CC2CCCCC2N1; Igl = N[C@H](C(=O)O)C1Cc2ccccc2C1; Hyp = O=C(O)[C@@H]1C[C@@H](O)CN1

Experiments:
Test in all cases: NCI tumour cell line growth inhibition, 48 h
DU-145 = tested on: DU-145
SNB-19 = tested on: SNB-19
HL-60 = tested on: HL-60
Hs-578T = tested on: Hs-578T
MCF7 = tested on: MCF7
OVCAR-8 = tested on: OVCAR-8
SF-539 = tested on: SF-539
ACHN = tested on: ACHN
786-0 = tested on: 786-0
SK-MEL-28 = tested on: SK-MEL-28
SN12C = tested on: SN12C
CAKI-1 = tested on: CAKI-1
NCI-H460 = tested on: NCI-H460
M14 = tested on: M14
UACC-257 = tested on: UACC-257
MDA-MB-231 = tested on: MDA-MB-231
NCI/ADR-RES = tested on: NCI/ADR-RES
LOX IMVI = tested on: LOX IMVI
A549 = tested on: A549
COLO 205 = tested on: COLO 205

| SMILES | GI50 (DU-145) | GI50 (SNB-19) | GI50 (HL-60) | GI50 (Hs-578T) | GI50 (MCF7) | GI50 (OVCAR-8) | GI50 (SF-539) | GI50 (ACHN) | GI50 (786-0) | GI50 (SK-MEL-28) | GI50 (SN12C) | GI50 (CAKI-1) | GI50 (NCI-H460) | GI50 (M14) | GI50 (UACC-257) | GI50 (MDA-MB-231) | GI50 (NCI/ADR-RES) | GI50 (LOX IMVI) | GI50 (A549) | GI50 (COLO 205) |
| --- | --- | --- | --- | --- | --- | --- | --- | --- | --- | --- | --- | --- | --- | --- | --- | --- | --- | --- | --- | --- |
| CC(O)C1(CNc2cc(Cl)nc(N)n2)CC(CCc2ccccc2)C1 (stereo not given) | 16.4 µM (inactive) | 15.8 µM (inactive) | 14.1 µM (inactive) | 17.3 µM (inactive) | 0.108 µM (active) | 14.5 µM (inactive) | 16.6 µM (inactive) | 9.73 µM (inactive) | 18.2 µM (inactive) | 14.3 µM (inactive) | 7.66 µM (inactive) | 11 µM (inactive) | 14 µM (inactive) | 17.9 µM (inactive) | 4.56 µM (inactive) | 10.7 µM (inactive) | 4.1 µM (inactive) | 3.92 µM (inactive) | 10.6 µM (inactive) | 15.5 µM (inactive) |
| CC(=O)Nc1ccc2c(C)c3c4ccccc4n(C)c3nc2n1 | 21 µM (inactive) | 39.1 µM (inactive) | 12.9 µM (inactive) | 16.3 µM (inactive) | 20.8 µM (inactive) | 17.9 µM (inactive) | 29.3 µM (inactive) | 8.55 µM (inactive) | 8.17 µM (inactive) |  | 16.4 µM (inactive) | 12.2 µM (inactive) | 2.92 µM (inactive) | 20.7 µM (inactive) | 26.9 µM (inactive) | 18.7 µM (inactive) | 22.3 µM (inactive) | 12.6 µM (inactive) | 16 µM (inactive) | 12.7 µM (inactive) |
| COc1ncc(C#CC(=O)c2ccccc2)c(OC)n1 | 8.07 µM (inactive) | 15.8 µM (inactive) | 1.23 µM (inactive) | 24.5 µM (inactive) | 0.378 µM (active) | 2.78 µM (inactive) |  | 1.77 µM (inactive) | 2.04 µM (inactive) | 5.11 µM (inactive) | 1.4 µM (inactive) | 2.76 µM (inactive) | 13.4 µM (inactive) | 2.22 µM (inactive) | 5.64 µM (inactive) | 1.95 µM (inactive) | 2.72 µM (inactive) | 0.815 µM (active) | 11.6 µM (inactive) | 1.99 µM (inactive) |
| O=C1C(Cl)=C(N2CCN(c3ccccn3)CC2)C(=O)c2ncccc21 | 11.8 µM (inactive) | 12.5 µM (inactive) | 0.668 µM (active) | 2.49 µM (inactive) | 1.67 µM (inactive) | 1.32 µM (inactive) | 2.05 µM (inactive) | 2.33 µM (inactive) | 1.63 µM (inactive) | 2.24 µM (inactive) | 2.61 µM (inactive) | 2.13 µM (inactive) | 3.05 µM (inactive) | 1.6 µM (inactive) | 1.7 µM (inactive) | 1.69 µM (inactive) | 2.33 µM (inactive) | 1.61 µM (inactive) | 6.56 µM (inactive) | 1.84 µM (inactive) |
| OC(c1cc2ccccc2[nH]1)C1(c2cccnc2)SCCCS1 (stereo not given) | > 100 µM (inactive) | > 100 µM (inactive) | 26.2 µM (inactive) | 41.3 µM (inactive) | 39.5 µM (inactive) | 63.8 µM (inactive) |  | 86.5 µM (inactive) | 97.3 µM (inactive) | > 100 µM (inactive) | 99.3 µM (inactive) | > 100 µM (inactive) | 94.6 µM (inactive) | 51.2 µM (inactive) | 52 µM (inactive) | 23.1 µM (inactive) | 53.3 µM (inactive) | 79.4 µM (inactive) | 47.6 µM (inactive) | 61.4 µM (inactive) |
| Cn1c(CO)ccc1-c1ccc(-c2ccc[se]2)[se]1 | 17.7 µM (inactive) | 30.7 µM (inactive) | 21.8 µM (inactive) | 55 µM (inactive) | 0.119 µM (active) | 23 µM (inactive) | 17.3 µM (inactive) | 72.1 µM (inactive) | 29.1 µM (inactive) | > 49.5 µM (inactive) | > 52.4 µM (inactive) | < 0.01 µM (active) | 14.2 µM (inactive) | 42.9 µM (inactive) |  | 23.6 µM (inactive) | 32.7 µM (inactive) | 47.9 µM (inactive) | 17.1 µM (inactive) | 3.46 µM (inactive) |
| CCNC(=S)N/N=C(\C)c1cccc(C)n1 | 14.9 µM (inactive) | 30.3 µM (inactive) | 3.47 µM (inactive) | > 100 µM (inactive) | 3.32 µM (inactive) | 3.44 µM (inactive) | 18.7 µM (inactive) | 9.27 µM (inactive) | 12.8 µM (inactive) | 22.3 µM (inactive) | 11.8 µM (inactive) |  | 6.01 µM (inactive) | 11 µM (inactive) | 5.2 µM (inactive) | 7.36 µM (inactive) | 8.45 µM (inactive) | 18.6 µM (inactive) | 20.6 µM (inactive) | 0.748 µM (active) |
| O=C(O)/C=c1/c2ccccc2n2nc3ccccc3c12 | 41.6 µM (inactive) | 31.8 µM (inactive) | 34.1 µM (inactive) | 23.6 µM (inactive) | 35.2 µM (inactive) | 21.5 µM (inactive) | 19.8 µM (inactive) | 23.8 µM (inactive) | 38.6 µM (inactive) | 26 µM (inactive) | 26.7 µM (inactive) | 37.3 µM (inactive) | 30.1 µM (inactive) | 31.2 µM (inactive) | 20.9 µM (inactive) | 39.1 µM (inactive) | 29.5 µM (inactive) | 21.9 µM (inactive) | 38.2 µM (inactive) | 17.2 µM (inactive) |
| OC(CCN1CCN(CCOC(c2ccc(F)cc2)c2ccc(F)cc2)CC1)c1ccc(Br)cc1 (stereo not given) | 6.21 µM (inactive) | 7.6 µM (inactive) | 2.77 µM (inactive) | 4.89 µM (inactive) | 3.37 µM (inactive) | 2.02 µM (inactive) | 2.3 µM (inactive) | 4.76 µM (inactive) | 2.68 µM (inactive) | 2.69 µM (inactive) | 2.68 µM (inactive) | 2.02 µM (inactive) | 2.42 µM (inactive) | 1.96 µM (inactive) | 1.96 µM (inactive) | 5.74 µM (inactive) | 2.21 µM (inactive) | 2.04 µM (inactive) | 9.44 µM (inactive) | 1.85 µM (inactive) |
| N=C(N)NCCC[C@H](NC(=O)[C@@H]1CC2CCCCC2N1C(=O)[C@@H](NC(=O)[C@H](CO)NC(=O)[C@@H](NC(=O)CNC(=O)[C@@H]1CCCN1C(=O)[C@H](CCCNC(=N)N)NC(=O)[C@H](CCCNC(=N)N)NC(=N)CCCCCCC(=N)N[C@@H](CCCNC(=N)N)C(=O)N[C@@H](CCCNC(=N)N)C(=O)N1CCC[C@H]1C(=O)N1C[C@H](O)C[C@H]1C(=O)NCC(=O)N[C@H](C(=O)N[C@@H](CO)C(=O)N[C@H](C(=O)N1C2CCCCC2C[C@H]1C(=O)N[C@@H](CCCNC(=N)N)C(=O)O)C1Cc2ccccc2C1)C1Cc2ccccc2C1)C1Cc2ccccc2C1)C1Cc2ccccc2C1)C(=O)O (stereo not given in full) (I: RP[Hyp]G[Igl]S[Igl][Oic(3aξ,7aξ)]R-OH / II: RPG[Igl]S[Igl][Oic(3aξ,7aξ)]R-OH; linker I:N-II:N via X42) | 1.64 µM (inactive) | 2.36 µM (inactive) | 0.15 µM (active) | 2.91 µM (inactive) | 1.99 µM (inactive) |  | 2.36 µM (inactive) | 1.91 µM (inactive) | 2.99 µM (inactive) | 2.01 µM (inactive) | 2.07 µM (inactive) | 2.1 µM (inactive) | 1.91 µM (inactive) | 3.18 µM (inactive) | 4.15 µM (inactive) | 1.69 µM (inactive) | 2.9 µM (inactive) | 2.24 µM (inactive) | 3.08 µM (inactive) | 1.69 µM (inactive) |
| O=C1NC(=O)C(C(c2ccc(Cl)cc2)C2C(=O)NC(=O)NC2=O)C(=O)N1.c1ccncc1 | > 100 µM (inactive) | > 100 µM (inactive) | > 100 µM (inactive) | > 100 µM (inactive) | > 100 µM (inactive) | > 100 µM (inactive) |  | > 100 µM (inactive) | > 100 µM (inactive) | > 100 µM (inactive) | > 100 µM (inactive) | > 100 µM (inactive) | > 100 µM (inactive) | > 100 µM (inactive) | > 100 µM (inactive) | > 100 µM (inactive) | > 100 µM (inactive) | > 100 µM (inactive) | > 100 µM (inactive) | > 100 µM (inactive) |
| O=c1[nH]c2ccc(Cl)cc2o1 | > 100 µM (inactive) | > 100 µM (inactive) | > 100 µM (inactive) | > 100 µM (inactive) | > 100 µM (inactive) | > 100 µM (inactive) | > 100 µM (inactive) | > 100 µM (inactive) | > 100 µM (inactive) |  | > 100 µM (inactive) | > 100 µM (inactive) | > 100 µM (inactive) | > 100 µM (inactive) | > 100 µM (inactive) | > 100 µM (inactive) | > 100 µM (inactive) | > 100 µM (inactive) | > 100 µM (inactive) | > 100 µM (inactive) |
| O=C1CCC(=O)N1CNc1ccc2c(c1)Sc1ccccc1O2 | 32.5 µM (inactive) | 67.3 µM (inactive) | 4.99 µM (inactive) | 44.7 µM (inactive) | 43.1 µM (inactive) | 25.9 µM (inactive) | 15.6 µM (inactive) | 47 µM (inactive) | 23.6 µM (inactive) | 87.3 µM (inactive) | 27.6 µM (inactive) | 32.7 µM (inactive) |  | 27.2 µM (inactive) | 46.7 µM (inactive) | 41.9 µM (inactive) | 42.9 µM (inactive) | 27.3 µM (inactive) | 33 µM (inactive) | 18 µM (inactive) |
| O=C(c1ccccc1)N1N=C(C(F)(F)F)CC1(O)C(F)(F)F (stereo not given) | > 100 µM (inactive) | > 100 µM (inactive) | > 100 µM (inactive) | > 100 µM (inactive) | > 100 µM (inactive) | > 100 µM (inactive) | > 100 µM (inactive) | > 100 µM (inactive) | > 100 µM (inactive) | > 100 µM (inactive) | > 100 µM (inactive) |  | > 100 µM (inactive) | > 100 µM (inactive) | > 100 µM (inactive) | > 100 µM (inactive) | > 100 µM (inactive) | > 100 µM (inactive) | > 100 µM (inactive) | > 100 µM (inactive) |
